The target in test [1] is Beta-lactamase TEM (Enterobacter cloacae) (UniProt Q6W9J1). The test can be described thus: Ratio of Kcat to Km of Enterobacter cloacae beta-lactamase TEM-1.
Test [2] concerns Enterobacter cloacae. Put plainly: Activity of Enterobacter cloacae beta-lactamase OXA-1.
The test system of test [3] is Enterobacter cloacae. The test can be described thus: Ratio of Kcat to Km of Enterobacter cloacae beta-lactamase OXA-1.

Beta-lactamase TEM (Enterobacter cloacae), sequence (Q6W9J1 as listed by the source): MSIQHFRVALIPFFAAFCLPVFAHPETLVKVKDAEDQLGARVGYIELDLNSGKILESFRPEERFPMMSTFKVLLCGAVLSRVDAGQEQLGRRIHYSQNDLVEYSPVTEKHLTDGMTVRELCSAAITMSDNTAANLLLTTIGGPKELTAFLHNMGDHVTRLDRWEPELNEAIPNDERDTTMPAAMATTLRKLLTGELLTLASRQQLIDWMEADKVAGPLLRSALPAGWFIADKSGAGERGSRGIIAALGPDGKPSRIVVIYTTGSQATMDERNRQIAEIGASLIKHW

By Km is commonly meant the concentration of substrate that gives half-maximal velocity. As for `CC(=O)OCC1=C(C(=O)O)N2C(=O)[C@@H](NO)[C@H]2SC1`, the Ratio in test [1] is 2620 s⁻¹ M⁻¹; in test [3], 66 s⁻¹ M⁻¹. Besides, the Km in test [2] was > 400 µM.
For `CC(=O)OCC1=C(C(=O)O)N2C(=O)/C(=N/O)[C@H]2SC1` the same measures were 158 s⁻¹ M⁻¹, 88 s⁻¹ M⁻¹ and > 400 µM.
As to `CC1=C(C(=O)O)N2C(=O)/C(=N/O)[C@H]2S(=O)(=O)C1`, the Ratio in test [1] stood at 40 s⁻¹ M⁻¹.
The kcat is the number of substrate molecules converted per active site and unit of time at saturation. With `CC(=O)OCC1=C(C(=O)O)N2C(=O)[C@@H](N(O)C(=O)Cc3ccccc3)[C@H]2SC1`, the Ratio in test [1] worked out at 2620 s⁻¹ M⁻¹. In test [2], the Km is 60 µM and the kcat came out at 0.121 s⁻¹. In addition, the Ratio in test [3] came out at 2020 s⁻¹ M⁻¹.
For `CC(=O)OCC1=C(C(=O)O)N2C(=O)[C@@H](NC=O)[C@H]2SC1` the same measures were 6 ×10⁴ /s/M, 323 µM, 1.02 s⁻¹ and 3160 s⁻¹ M⁻¹.
With `CC(=O)OCC1=C(C(=O)O)N2C(=O)[C@@H](N(O)C=O)[C@H]2SC1`, the Ratio in test [1] came out at 25 s⁻¹ M⁻¹; in test [3] it was 75 s⁻¹ M⁻¹. Besides, the Km in test [2] is > 400 µM.
Consider `CC(=O)OCC1=C(C(=O)O)N2C(=O)/C(=N/O)[C@H]2S(=O)(=O)C1`, for which the Ratio in test [1] was 1690 s⁻¹ M⁻¹; in test [3] it was 990 s⁻¹ M⁻¹. Moreover, the Km in test [2] is > 400 µM.
For `CC(=O)OCC1=C(C(=O)O)N2C(=O)[C@@H](NC(=O)Cc3cccs3)[C@H]2SC1`, the Ratio in test [1] was 4.85 ×10⁵ /s/M. In addition, in test [2], the Km was 13.9 µM and the kcat was 1.81 s⁻¹. In addition, the Ratio in test [3] stood at 8.51 ×10⁴ /s/M.

The record behind these values is ChEMBL document CHEMBL1153321, “Approaches to the simultaneous inactivation of metallo- and serine-beta-lactamases” (Bioorg Med Chem Lett, 2009).
